Experimental data as given in patent US20230072683A1, “PYRIDO-PYRIMIDIN DERIVATIVES AND PHARMACEUTICAL COMPOSITION, FOR USE IN PREVENTING OR TREATING PI3 KINASE RELATED DISEASES, COMPRISING SAME AS ACTIVE INGREDIENT” (BORYUNG PHARMACEUTICAL CO., LTD, priority 2019, published 2023).

Tests used:
[1] = molecular target: PI3K-δ (PI3K(p1108/p857) (h)) (Homo sapiens, UniProt O00329); experiment: Evaluation of inhibitory activity against PI3K-δ (HTRF kinase assay); type: biochemical; settings: for inhibition at 0.01 µM: compound concentration 0.01 μM, read-out: EXP_VALUE(% Inhibition) PI3K-δ 0.01 μM; for inhibition at 0.1 µM: compound concentration 0.1 μM, read-out: EXP_VALUE(% Inhibition) PI3K-δ 0.1 μM
Method in brief: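 HTRF read-out (665/620 nm ratio ×10000) used Eu-labelled anti-GST, GST-tagged GRP1 PH domain and streptavidin-allophycocyanin after EDTA/PIP3 stop.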

[2] = molecular target: DNA-PK(h) (Homo sapiens, UniProt P78527); experiment: Evaluation of inhibitory activity against DNA-PK (HTRF kinase assay, GST-cMyc-p53 substrate); type: biochemical; settings: for inhibition at 0.01 µM: compound concentration 0.01 μM, read-out: EXP_VALUE(% Inhibition) DNA-PK(h) 0.01 μM; for inhibition at 0.1 µM: compound concentration 0.1 μM, read-out: EXP_VALUE(% Inhibition) DNA-PK(h) 0.1 μM
Method in brief: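 p53 Ser15 phosphorylation by human DNA-PK was measured by time-resolved FRET ratio (665/620 nm ×10000) using Eu-labelled anti-phospho-Ser15 and d2 anti-GST antibodies. Substrate GST-cMyc-p53 at 50 μM; Mg/ATP-initiated, 30 min at room temperature, EDTA stop.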

Chain of PI3K-δ (PI3K(p1108/p857) (h)) (O00329 whole entry, the tested form may be a part): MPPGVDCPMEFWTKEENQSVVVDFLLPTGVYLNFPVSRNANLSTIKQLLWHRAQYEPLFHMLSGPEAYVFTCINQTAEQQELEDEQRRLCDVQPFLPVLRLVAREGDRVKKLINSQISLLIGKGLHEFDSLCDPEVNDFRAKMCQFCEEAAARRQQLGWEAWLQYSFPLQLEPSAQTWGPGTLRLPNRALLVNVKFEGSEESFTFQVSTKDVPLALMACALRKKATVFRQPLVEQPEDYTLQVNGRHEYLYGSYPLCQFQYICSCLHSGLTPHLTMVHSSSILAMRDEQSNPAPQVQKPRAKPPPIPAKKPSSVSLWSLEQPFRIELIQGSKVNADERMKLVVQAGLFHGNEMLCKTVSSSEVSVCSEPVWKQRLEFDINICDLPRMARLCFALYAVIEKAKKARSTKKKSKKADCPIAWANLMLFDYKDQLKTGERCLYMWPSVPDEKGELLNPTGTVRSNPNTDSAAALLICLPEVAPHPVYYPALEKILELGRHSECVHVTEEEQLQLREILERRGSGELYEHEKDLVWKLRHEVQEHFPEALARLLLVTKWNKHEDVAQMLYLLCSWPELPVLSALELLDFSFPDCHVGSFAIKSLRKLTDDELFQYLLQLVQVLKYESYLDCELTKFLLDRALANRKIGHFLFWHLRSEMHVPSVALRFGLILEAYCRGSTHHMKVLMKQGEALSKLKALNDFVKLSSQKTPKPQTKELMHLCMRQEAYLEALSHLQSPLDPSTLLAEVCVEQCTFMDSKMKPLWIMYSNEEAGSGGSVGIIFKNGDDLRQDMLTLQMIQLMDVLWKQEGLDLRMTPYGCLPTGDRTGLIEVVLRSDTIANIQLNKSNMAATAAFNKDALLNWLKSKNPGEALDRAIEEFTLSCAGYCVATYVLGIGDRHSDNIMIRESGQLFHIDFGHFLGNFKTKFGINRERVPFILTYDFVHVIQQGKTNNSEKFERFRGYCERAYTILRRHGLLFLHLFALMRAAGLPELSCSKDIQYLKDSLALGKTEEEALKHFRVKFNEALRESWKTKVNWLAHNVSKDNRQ
Chain of PI3K-δ (PI3K(p1108/p857) (h)) (P27986 whole entry partner, the tested form may be a part): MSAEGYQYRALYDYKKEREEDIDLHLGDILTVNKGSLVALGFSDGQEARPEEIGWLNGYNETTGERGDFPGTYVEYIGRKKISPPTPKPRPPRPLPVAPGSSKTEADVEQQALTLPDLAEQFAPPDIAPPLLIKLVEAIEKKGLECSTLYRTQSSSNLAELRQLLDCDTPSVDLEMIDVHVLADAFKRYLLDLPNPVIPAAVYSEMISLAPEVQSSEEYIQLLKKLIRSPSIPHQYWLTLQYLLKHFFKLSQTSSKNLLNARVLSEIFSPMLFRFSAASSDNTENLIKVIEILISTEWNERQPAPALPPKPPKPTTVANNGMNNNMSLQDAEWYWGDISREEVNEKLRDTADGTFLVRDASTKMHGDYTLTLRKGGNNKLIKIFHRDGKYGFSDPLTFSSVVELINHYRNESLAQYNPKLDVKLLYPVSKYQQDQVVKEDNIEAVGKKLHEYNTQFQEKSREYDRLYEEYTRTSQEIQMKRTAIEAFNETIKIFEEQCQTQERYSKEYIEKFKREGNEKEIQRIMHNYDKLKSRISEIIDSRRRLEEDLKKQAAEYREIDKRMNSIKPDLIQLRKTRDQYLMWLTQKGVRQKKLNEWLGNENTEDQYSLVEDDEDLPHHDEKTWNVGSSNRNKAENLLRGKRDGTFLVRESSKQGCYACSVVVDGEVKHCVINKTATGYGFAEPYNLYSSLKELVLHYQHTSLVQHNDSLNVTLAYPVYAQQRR

Row | Structure (SMILES) | inhibition at 0.01 µM [1] | inhibition at 0.1 µM [1] | inhibition at 0.01 µM [2] | inhibition at 0.1 µM [2]
1 | C[C@H](Nc1ncnc2[nH]ccc(=O)c12)c1c(Cl)c2cccc(-c3cccc4[nH]ccc34)c2c(=O)n1-c1ccccc1 [Example 89, (S)-4-((1-(4-chloro-8-(1H-indol-4-yl)-1-oxo-2-phenyl-1,2-dihydroisoquinolin-3-yl)ethyl)amino)pyrido[2,3-d]pyrimidin-5(8H)-one] | 58% | 92% | 17% | 52%
2 | CCOc1c(OC)ccc(-c2cccc3c(Cl)c([C@H](C)Nc4ncnc5[nH]ccc(=O)c45)n(-c4ccccc4)c(=O)c23)c1F [Example 199, (S)-4-((1-(4-chloro-8-(3-ethoxy-2-fluoro-4-methoxyphenyl)-1-oxo-2-phenyl-1,2-dihydroisoquinolin-3-yl)ethyl)amino)pyrido[2,3-d]pyrimidin-5(8H)-one] | 35% |  | 60% | 
3 | C[C@H](Nc1ncnc2[nH]ccc(=O)c12)c1cc2cccc(C#N)c2c(=O)n1-c1ccccc1 [Example 266, (S)-1-oxo-3-(1-((5-oxo-5,8-dihydropyrido[2,3-d]pyrimidin-4-yl)amino)ethyl)-2-phenyl-1,2-dihydroisoquinoline-8-carbonitrile] | 69% | 88% | -10% | 3%
4 | COc1ncc(-c2cccc3c(Cl)c([C@H](C)Nc4ncnc5[nH]ccc(=O)c45)n(-c4ccccc4)c(=O)c23)cc1[N+](=O)[O-] [Example 61, (S)-4-((1-(4-chloro-8-(6-methoxy-5-nitropyridin-3-yl)-1-oxo-2-phenyl-1,2-dihydroisoquinolin-3-yl)ethyl)amino)pyrido[2,3-d]pyrimidin-5(8H)-one] | 89% |  | 67% | 
5 | C[C@H](Nc1ncnc2[nH]ccc(=O)c12)c1c(Cl)c2cccc(-c3ccc4ncccc4c3)c2c(=O)n1-c1ccccc1 [Example 121, (S)-4-((1-(4-chloro-1-oxo-2-phenyl-8-(quinolin-6-yl)-1,2-dihydroisoquinolin-3-yl)ethyl)amino)pyrido[2,3-d]pyrimidin-5(8H)-one] | 84% | 95% | 76% | 98%
6 | C[C@H](Nc1ncnc2[nH]ccc(=O)c12)c1c(Cl)c2cccc(-c3cc(F)cc(F)c3)c2c(=O)n1-c1ccccc1 [Example 124, (S)-4-((1-(4-chloro-8-(3,5-difluorophenyl)-1-oxo-2-phenyl-1,2-dihydroisoquinolin-3-yl)ethyl)amino)pyrido[2,3-d]pyrimidin-5(8H)-one] | 83% | 99% | 44% | 86%

Now from value to molecule:

Row | inhibition at 0.01 µM [1] | inhibition at 0.1 µM [1] | inhibition at 0.01 µM [2] | inhibition at 0.1 µM [2] | Structure (SMILES)
7 | 21% | 64% | 29% | 67% | C[C@H](Nc1ncnc2[nH]ccc(=O)c12)c1c(Cl)c2cccc(OCc3ccccc3)c2c(=O)n1-c1ccccc1 [Example 362, (S)-4-((1-(8-(benzyloxy)-4-chloro-1-oxo-2-phenyl-1,2-dihydroisoquinolin-3-yl)ethyl)amino)pyrido[2,3-d]pyrimidin-5(8H)-one]
8 | 81% |  | 12% |  | C[C@H](Nc1ncnc2[nH]ccc(=O)c12)c1c(Cl)c2cccc(C(=O)NCC3CC3)c2c(=O)n1-c1ccccc1 [Example 283, (S)-4-chloro-N-(cyclopropylmethyl)-1-oxo-3-(1-((5-oxo-5,8-dihydropyrido[2,3-d]pyrimidin-4-yl)amino)ethyl)-2-phenyl-1,2-dihydroisoquinoline-8-carboxamide]
9 | 69% | 20% | 8% | 52% | C[C@H](Nc1ncnc2[nH]ccc(=O)c12)c1c(Cl)c2cccc(N3CCCC3O)c2c(=O)n1-c1ccccc1 (stereo partly drawn) [Example 339, 4-(((1S)-1-(4-chloro-8-(2-hydroxypyrrolidin-1-yl)-1-oxo-2-phenyl-1,2-dihydroisoquinolin-3-yl)ethyl)amino)pyrido[2,3-d]pyrimidin-5(8H)-one]
